Test results: the supplement of paper PMC4862054

Columns and labels:
Conditions in all cases: incubation time: 72 h
BT-474 [1] = assay: normalised viability (% of control), CellTiter-Blue; higher = more viable cells (about 100 = DMSO control)
Description: (§1)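 DSRT, CellTiter-Blue viability, 72 h incubation. Signal is normalised to DMSO and benzethonium chloride controls. Value is the normalised response at dose 3.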

BT-549 [2] = assay: as above
Description: as §1

DU-4475 [3] = assay: as above
Description: as §1

HCC1937 [4] = assay: as above
Description: as §1

MDA-MB-231 [5] = assay: as above
Description: as §1

MDA-MB-453 [6] = assay: as above
Description: as §1

MFM-223 [7] = assay: as above
Description: as §1

SK-BR-3 [8] = assay: as above
Description: as §1

BT-474 [9] = assay: drug sensitivity score (DSS), CellTiter-Glo (DSS (AUC-based score)); higher = stronger drug effect (viability inhibition or cytotoxicity); extreme values may be limits of the assay
Summary of the method: (§2)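 Breast cancer cell lines (20 µl suspension) were seeded into 384-well plates holding compound at 5 concentrations in 10-fold steps over a compound-specific 10,000-fold range, then incubated 72 h. CellTox Green fluorescence (485/520 nm) was read first, then CellTiter-Glo luminescence after 10 min at room temperature. Each plate was normalised to 0.1 % DMSO and a positive kill control. The drug sensitivity score was calculated from the area under the fitted dose-response curve.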

BT-549 [10] = assay: as above
Summary of the method: as §2

CAL-120 = assay: as above
Summary of the method: as §2

CAL-148 = assay: as above
Summary of the method: as §2

CAL-51 = assay: as above
Summary of the method: as §2

CAL-85-1 = assay: as above
Summary of the method: as §2

DU-4475 [11] = assay: as above
Summary of the method: as §2

HCC1143 = assay: as above
Summary of the method: as §2

HCC1599 = assay: as above
Summary of the method: as §2

HCC1937 [12] = assay: as above
Summary of the method: as §2

HDQ-P1 = assay: as above
Summary of the method: as §2

Hs578T = assay: as above
Summary of the method: as §2

MCF-10A = assay: as above
Summary of the method: as §2

MDA-MB-231 [13] = assay: as above
Summary of the method: as §2

MDA-MB-436 = assay: as above
Summary of the method: as §2

MDA-MB-453 [14] = assay: as above
Summary of the method: as §2

MDA-MB-468 = assay: as above
Summary of the method: as §2

MFM-223 [15] = assay: as above
Summary of the method: as §2

SK-BR-3 [16] = assay: as above
Summary of the method: as §2

Structure (SMILES) | normalised viability (BT-474 [1]; 100 nM) [%] | drug sensitivity score (BT-474 [9]) | drug sensitivity score (BT-549 [10]) | drug sensitivity score (CAL-120) | drug sensitivity score (CAL-148) | drug sensitivity score (CAL-51) | drug sensitivity score (CAL-85-1) | drug sensitivity score (DU-4475 [11]) | drug sensitivity score (HCC1143) | drug sensitivity score (HCC1599) | drug sensitivity score (HCC1937 [12]) | drug sensitivity score (HDQ-P1) | drug sensitivity score (Hs578T) | drug sensitivity score (MCF-10A) | drug sensitivity score (MDA-MB-231 [13]) | drug sensitivity score (MDA-MB-436) | drug sensitivity score (MDA-MB-453 [14]) | drug sensitivity score (MDA-MB-468) | drug sensitivity score (MFM-223 [15]) | drug sensitivity score (SK-BR-3 [16]) | other results
Cc1c(CN2CCN(C(=O)[C@H](C)O)CC2)sc2c(N3CCOCC3)nc(-c3cnc(N)nc3)nc12 [GDC-0980] | 90.2 | 8.66 | 13.1 | 10.9 | 12.4 | 14.7 | 11.8 | 6.71 | 11.4 | 2.28 | 6.52 | 14.1 | 12.6 | 12.6 | 9.56 | 8.47 | 17.5 | 10.1 | 12.7 | 18.5 | normalised viability (BT-549 [2]; 100 nM): 81.9%; normalised viability (DU-4475 [3]; 10 nM): 92.7%; normalised viability (HCC1937 [4]; 100 nM): 76.7%; normalised viability (MDA-MB-231 [5]; 100 nM): 59.2%; normalised viability (MDA-MB-453 [6]; 10 nM): 96.1%; normalised viability (MFM-223 [7]; 100 nM): 65.4%; normalised viability (SK-BR-3 [8]; 100 nM): 45.3%
O=C(Nc1c[nH]nc1-c1nc2ccc(CN3CCOCC3)cc2[nH]1)NC1CC1 [AT9283] | 112 | 5.15 | 4.94 | 5.15 | 0 | 7.83 | 0 | 1.31 | 2.84 | 0 | 0 | 2.87 | 4.11 | 5.49 | 6.11 | 0 | 0 | 13.4 | 1.08 | 1.96 | normalised viability (BT-549 [2]; 100 nM): 86%; normalised viability (DU-4475 [3]; 10 nM): 97.5%; normalised viability (HCC1937 [4]; 100 nM): 60.9%; normalised viability (MDA-MB-231 [5]; 100 nM): 75.2%; normalised viability (MDA-MB-453 [6]; 10 nM): 82.5%; normalised viability (MFM-223 [7]; 100 nM): 64%; normalised viability (SK-BR-3 [8]; 100 nM): 53%
c1cc(CN2CCCNCCNCCCNCC2)ccc1CN1CCCNCCNCCCNCC1 [Plerixafor] |  | 0 | 0 | 0 | 0 | 0 | 0 | 0 | 0 | 0 | 0 | 0 | 0 | 0 | 0 | 0 | 0 | 0 | 0 | 0 | normalised viability (BT-474 [1]; 25 nM): 108%; normalised viability (BT-549 [2]; 25 nM): 117%; normalised viability (DU-4475 [3]; 2.5 nM): 93.1%; normalised viability (HCC1937 [4]; 25 nM): 102%; normalised viability (MDA-MB-231 [5]; 25 nM): 93.9%; normalised viability (MDA-MB-453 [6]; 2.5 nM): 106%; normalised viability (MFM-223 [7]; 25 nM): 92.6%; normalised viability (SK-BR-3 [8]; 25 nM): 84.3%
COc1cc(CCc2cc(NC(=O)c3ccc(N4CC(C)NC(C)C4)cc3)n[nH]2)cc(OC)c1 (configuration not stated) [AZD4547] |  | 0 | 0.487 | 3.61 | 0 | 0 | 0 | 0 | 0 | 0 | 0 | 0 | 0.967 | 1.73 | 0 | 0 | 0.805 | 0 | 12.2 | 0 | normalised viability (BT-474 [1]; 10 nM): 131%; normalised viability (BT-549 [2]; 10 nM): 109%; normalised viability (DU-4475 [3]; 1 nM): 100%; normalised viability (HCC1937 [4]; 10 nM): 91.8%; normalised viability (MDA-MB-231 [5]; 10 nM): 124%; normalised viability (MDA-MB-453 [6]; 1 nM): 107%; normalised viability (MFM-223 [7]; 10 nM): 59.2%; normalised viability (SK-BR-3 [8]; 10 nM): 97.5%
Cc1ccc(Nc2nccc(N(C)c3ccc4c(C)n(C)nc4c3)n2)cc1S(N)(=O)=O [Pazopanib] | 99.7 | 0 | 2.29 | 0.234 | 0 | 0 | 0 | 0 | 0 | 0 | 0 | 0 | 0.162 | 0 | 0 | 0 | 0 | 0 | 6.2 | 0 | normalised viability (BT-549 [2]; 100 nM): 96.9%; normalised viability (DU-4475 [3]; 10 nM): 103%; normalised viability (HCC1937 [4]; 100 nM): 94%; normalised viability (MDA-MB-231 [5]; 100 nM): 94.3%; normalised viability (MDA-MB-453 [6]; 10 nM): 100%; normalised viability (MFM-223 [7]; 100 nM): 71.7%; normalised viability (SK-BR-3 [8]; 100 nM): 78.7%
CC[C@@]1(O)C(=O)OCc2c1cc1n(c2=O)Cc2cc3c(CN(C)C)c(O)ccc3nc2-1 [Topotecan] |  | 3.82 | 10.8 | 5.11 | 18.7 | 11 | 11.1 | 14.6 | 9.67 | 18.3 | 6.32 | 0 | 1.55 | 4.97 | 4.13 | 13.6 | 5.74 | 20.8 | 0 | 14.1 | normalised viability (BT-474 [1]; 10 nM): 121%; normalised viability (BT-549 [2]; 10 nM): 107%; normalised viability (DU-4475 [3]; 1 nM): 92.6%; normalised viability (HCC1937 [4]; 10 nM): 81.3%; normalised viability (MDA-MB-231 [5]; 10 nM): 90.1%; normalised viability (MDA-MB-453 [6]; 1 nM): 101%; normalised viability (MFM-223 [7]; 10 nM): 92.1%; normalised viability (SK-BR-3 [8]; 10 nM): 85.5%
